Calls of active or inactive are those of the source.
How the values were obtained:
DNA topoisomerase = molecular target: T1, DNA topoisomerase (Yersinia pestis, UniProt A0A2S9PM60); test: Yersinia topoisomerase I cleavage product accumulation – biochemical, cherry-pick, dose response (AID 588525)
T1 sequence (A0A2S9PM60 whole entry): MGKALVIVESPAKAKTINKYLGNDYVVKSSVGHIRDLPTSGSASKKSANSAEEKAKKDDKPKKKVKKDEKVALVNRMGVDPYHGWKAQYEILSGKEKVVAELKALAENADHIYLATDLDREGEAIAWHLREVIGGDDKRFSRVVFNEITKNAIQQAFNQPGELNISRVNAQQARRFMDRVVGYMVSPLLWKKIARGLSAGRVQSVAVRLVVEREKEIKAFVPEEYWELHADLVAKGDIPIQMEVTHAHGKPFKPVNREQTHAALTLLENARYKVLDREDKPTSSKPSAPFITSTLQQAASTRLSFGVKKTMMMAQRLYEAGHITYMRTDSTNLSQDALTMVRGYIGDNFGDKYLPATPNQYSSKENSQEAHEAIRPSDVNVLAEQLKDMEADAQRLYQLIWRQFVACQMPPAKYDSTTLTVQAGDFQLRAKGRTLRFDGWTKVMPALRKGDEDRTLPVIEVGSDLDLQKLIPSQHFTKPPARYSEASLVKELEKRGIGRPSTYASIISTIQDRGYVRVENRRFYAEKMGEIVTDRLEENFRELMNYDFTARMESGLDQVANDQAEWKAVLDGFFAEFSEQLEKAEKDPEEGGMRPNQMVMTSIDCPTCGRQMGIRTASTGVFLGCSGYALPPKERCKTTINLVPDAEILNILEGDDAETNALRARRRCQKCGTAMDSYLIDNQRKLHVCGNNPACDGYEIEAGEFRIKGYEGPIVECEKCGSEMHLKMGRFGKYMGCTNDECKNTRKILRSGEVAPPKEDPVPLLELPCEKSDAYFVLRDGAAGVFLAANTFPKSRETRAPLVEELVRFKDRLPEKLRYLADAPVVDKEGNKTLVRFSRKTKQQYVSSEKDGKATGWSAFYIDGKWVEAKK

Phospholipase A2 = Phospholipase A2 (Homo sapiens, UniProt P04054); assay type: functional;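 also: confirmatory dose-response counterscreen on phospholipase A2, testing hits that came from an ultra-high-throughput screen for ATG4B inhibitors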
Cysteine protease ATG4B = molecular target: T2, Cysteine protease ATG4B (Homo sapiens, UniProt Q9Y4P1); assay type: functional;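 also: Fluorescence-based dose-response confirmation assay measuring inhibition of ATG4B activity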
T2 sequence (Q9Y4P1 whole entry): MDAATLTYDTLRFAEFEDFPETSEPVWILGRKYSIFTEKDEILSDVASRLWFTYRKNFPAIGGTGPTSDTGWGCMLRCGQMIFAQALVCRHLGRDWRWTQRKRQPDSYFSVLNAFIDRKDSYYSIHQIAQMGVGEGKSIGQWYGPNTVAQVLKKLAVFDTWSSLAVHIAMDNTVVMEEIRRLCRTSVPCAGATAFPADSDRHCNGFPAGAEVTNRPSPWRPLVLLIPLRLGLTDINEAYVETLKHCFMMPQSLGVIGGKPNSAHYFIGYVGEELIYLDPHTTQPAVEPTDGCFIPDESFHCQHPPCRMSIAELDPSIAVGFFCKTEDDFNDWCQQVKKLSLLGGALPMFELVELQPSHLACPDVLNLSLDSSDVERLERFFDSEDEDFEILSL

Cytochrome P450 2C9 = Cytochrome P450 2C9 (Homo sapiens, UniProt P11712)
Beta-galactosidase = Beta-galactosidase (Escherichia coli, UniProt Q8VNN2); test: PubChem AID 485352; assay type: functional
[1] = molecular target: T3, Type-1 angiotensin II receptor (Homo sapiens, UniProt P30556); test: antagonism of angiotensin II type 1 receptor – cell-based, uHTS hits, selectivity assay for APJ receptor antagonist project, dose response (AID 463214); assay type: functional;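 also: antagonist potency against angiotensin II stimulated AT1 response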
T3 sequence (P30556 whole entry): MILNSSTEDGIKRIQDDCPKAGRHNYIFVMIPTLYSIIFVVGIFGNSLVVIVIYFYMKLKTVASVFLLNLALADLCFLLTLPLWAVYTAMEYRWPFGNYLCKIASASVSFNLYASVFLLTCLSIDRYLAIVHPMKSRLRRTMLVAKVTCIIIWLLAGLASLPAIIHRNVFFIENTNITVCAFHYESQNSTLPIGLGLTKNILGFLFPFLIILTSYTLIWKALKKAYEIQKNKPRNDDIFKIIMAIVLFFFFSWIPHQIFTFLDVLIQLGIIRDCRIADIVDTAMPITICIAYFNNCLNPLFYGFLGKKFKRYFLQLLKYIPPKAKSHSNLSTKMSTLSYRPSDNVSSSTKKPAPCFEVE

[2] = molecular target: T4, Endoribonuclease toxin MazF (Escherichia coli K-12, UniProt P0AE70); test: activation of MazEF endoribonuclease cleavage – biochemical, fluorescence, single-stranded RNA substrate, uHTS hits, dose response (AID 588481); assay type: functional
T4 sequence (P0AE70 whole entry): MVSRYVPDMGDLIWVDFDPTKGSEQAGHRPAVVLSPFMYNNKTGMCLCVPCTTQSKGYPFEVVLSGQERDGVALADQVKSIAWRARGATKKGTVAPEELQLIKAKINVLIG

[3] = molecular target: T5, Polyadenylate-binding protein 1 (Homo sapiens, UniProt P11940); test: MLLE binding blockers, Cy5 peptide tracer – biochemical, fluorescence polarization, Cy5-PAM2 peptide, secondary, miRNA deadenylation inhibitor project, dose response (AID 602260); assay type: functional; details: read-out: IC50_Mean
[4] = molecular target: T4, Endoribonuclease toxin MazF; test: substrate-only fluorescence increase artefacts – biochemical, single-stranded RNase substrate, counter-screen for MazEF activator project, dose response (AID 588502); assay type: functional
[5] = molecular target: T5, Polyadenylate-binding protein 1; test: MLLE domain peptide-binding blockers, IC50 – biochemical, fluorescence polarization, FITC-PAM2 peptide, dose response (AID 602259); assay type: functional; details: read-out: IC50_Mean
Prothrombin = Prothrombin (Homo sapiens, UniProt P00734); test: Thrombin 1536 HTS Dose Response Confirmation. [Related pubchem assays: 1046 (Thrombin 1536 HTS; hits were confirmed in this assay)]; assay type: functional
[6] = molecular target: Heat shock protein HSP 90-alpha (Homo sapiens, UniProt P07900); assay type: functional, organism-based
[7] = Luminescence Cell-Based Dose Confirmation HTS to Identify Inhibitors of Platelet Dense Granule Release. [Related pubchem assays: 1663 (Primary HTS), 1678 (Summary of Project)]; assay type: functional
[8] = molecular target: T6, Sentrin-specific protease 6 (Homo sapiens, UniProt Q9GZR1); assay type: functional;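 also: Luminescence-based dose-response confirmatory assay of SENP6 inhibition, following up an ultra-high-throughput screen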
T6 sequence (Q9GZR1 whole entry): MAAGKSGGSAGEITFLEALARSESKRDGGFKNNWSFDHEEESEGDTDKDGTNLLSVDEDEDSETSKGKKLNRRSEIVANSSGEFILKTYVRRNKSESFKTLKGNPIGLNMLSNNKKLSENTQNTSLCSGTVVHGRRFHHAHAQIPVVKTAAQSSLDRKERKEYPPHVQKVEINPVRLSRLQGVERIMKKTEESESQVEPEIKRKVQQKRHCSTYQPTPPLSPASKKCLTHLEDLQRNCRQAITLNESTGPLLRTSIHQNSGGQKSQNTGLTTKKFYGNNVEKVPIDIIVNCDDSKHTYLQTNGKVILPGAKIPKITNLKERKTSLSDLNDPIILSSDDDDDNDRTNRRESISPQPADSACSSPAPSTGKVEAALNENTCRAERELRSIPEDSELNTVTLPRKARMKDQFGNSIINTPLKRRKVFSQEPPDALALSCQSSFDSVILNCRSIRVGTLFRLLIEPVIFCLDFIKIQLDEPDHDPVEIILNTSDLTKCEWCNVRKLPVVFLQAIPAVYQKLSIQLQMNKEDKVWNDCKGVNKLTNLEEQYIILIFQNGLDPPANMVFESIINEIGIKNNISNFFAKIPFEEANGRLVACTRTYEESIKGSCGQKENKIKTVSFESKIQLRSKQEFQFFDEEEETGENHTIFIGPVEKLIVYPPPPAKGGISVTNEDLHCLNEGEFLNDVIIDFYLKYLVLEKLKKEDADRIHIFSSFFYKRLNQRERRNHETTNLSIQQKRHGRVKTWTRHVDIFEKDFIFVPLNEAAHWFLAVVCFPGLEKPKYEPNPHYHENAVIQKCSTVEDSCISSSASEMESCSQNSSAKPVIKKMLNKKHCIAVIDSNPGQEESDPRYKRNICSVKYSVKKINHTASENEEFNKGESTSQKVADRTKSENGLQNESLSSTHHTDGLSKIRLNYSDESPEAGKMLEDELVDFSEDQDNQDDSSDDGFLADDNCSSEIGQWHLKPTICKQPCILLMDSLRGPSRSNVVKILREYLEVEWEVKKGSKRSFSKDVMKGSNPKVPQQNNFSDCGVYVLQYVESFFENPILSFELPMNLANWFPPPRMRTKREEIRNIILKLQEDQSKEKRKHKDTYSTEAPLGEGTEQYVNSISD

[9] = molecular target: T7, Sentrin-specific protease 7 (Homo sapiens, UniProt Q9BQF6); assay type: functional;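 also: Luminescence-based dose-response confirmation of ultra-high-throughput screening hits, measuring inhibition of SENP7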
T7 sequence (Q9BQF6 whole entry): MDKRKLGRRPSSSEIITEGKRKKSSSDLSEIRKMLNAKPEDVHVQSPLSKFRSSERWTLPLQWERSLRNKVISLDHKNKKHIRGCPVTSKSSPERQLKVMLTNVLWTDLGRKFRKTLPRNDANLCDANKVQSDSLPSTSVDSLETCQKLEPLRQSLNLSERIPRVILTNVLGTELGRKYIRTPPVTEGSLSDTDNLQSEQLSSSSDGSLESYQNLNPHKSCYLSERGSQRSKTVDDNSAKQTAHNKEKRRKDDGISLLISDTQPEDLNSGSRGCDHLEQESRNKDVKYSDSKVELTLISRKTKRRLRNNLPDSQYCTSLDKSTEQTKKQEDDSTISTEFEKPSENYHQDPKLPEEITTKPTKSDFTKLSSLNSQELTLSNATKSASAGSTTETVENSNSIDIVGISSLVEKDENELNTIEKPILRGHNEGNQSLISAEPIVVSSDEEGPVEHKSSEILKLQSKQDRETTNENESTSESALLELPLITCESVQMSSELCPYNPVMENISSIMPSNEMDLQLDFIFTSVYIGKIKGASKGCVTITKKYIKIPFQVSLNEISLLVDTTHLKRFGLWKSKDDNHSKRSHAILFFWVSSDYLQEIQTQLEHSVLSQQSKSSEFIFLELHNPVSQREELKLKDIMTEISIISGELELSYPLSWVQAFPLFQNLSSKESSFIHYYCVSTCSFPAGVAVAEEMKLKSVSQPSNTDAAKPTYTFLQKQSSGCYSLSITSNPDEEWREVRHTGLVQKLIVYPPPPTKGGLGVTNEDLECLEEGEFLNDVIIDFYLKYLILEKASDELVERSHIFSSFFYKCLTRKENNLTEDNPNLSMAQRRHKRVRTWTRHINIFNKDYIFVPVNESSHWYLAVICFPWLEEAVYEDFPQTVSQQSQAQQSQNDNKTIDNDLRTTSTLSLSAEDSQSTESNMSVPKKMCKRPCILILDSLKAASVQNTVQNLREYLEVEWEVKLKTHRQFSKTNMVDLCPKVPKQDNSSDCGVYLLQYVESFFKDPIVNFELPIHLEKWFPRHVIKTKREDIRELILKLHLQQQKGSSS

Caspase-3 = molecular target: T8, Caspase-3 (Homo sapiens, UniProt P42574); assay type: functional;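 also: Dose-response selectivity test against caspase-3 for candidate inhibitors of sentrin-specific proteases (SENPs)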
T8 sequence (P42574 whole entry): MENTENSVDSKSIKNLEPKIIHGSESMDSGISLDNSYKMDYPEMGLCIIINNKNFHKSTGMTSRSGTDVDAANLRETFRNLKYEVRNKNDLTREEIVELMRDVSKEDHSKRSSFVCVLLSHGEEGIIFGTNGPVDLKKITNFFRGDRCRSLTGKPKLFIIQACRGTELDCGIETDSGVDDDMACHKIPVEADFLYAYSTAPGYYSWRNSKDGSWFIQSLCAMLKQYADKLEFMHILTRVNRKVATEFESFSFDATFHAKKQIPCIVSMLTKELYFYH

[10] = molecular target: T9, Sentrin-specific protease 8 (Homo sapiens, UniProt Q96LD8); assay type: functional;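 also: luminescence read-out of SENP8 inhibition, dose-response confirmation following an ultra-high-throughput screen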
T9 sequence (Q96LD8 whole entry): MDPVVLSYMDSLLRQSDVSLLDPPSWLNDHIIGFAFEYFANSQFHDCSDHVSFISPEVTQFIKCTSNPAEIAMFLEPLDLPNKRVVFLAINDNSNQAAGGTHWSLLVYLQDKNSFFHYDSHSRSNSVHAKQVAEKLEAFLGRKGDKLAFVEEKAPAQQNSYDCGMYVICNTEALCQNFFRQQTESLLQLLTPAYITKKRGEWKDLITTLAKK

[11] = molecular target: Luciferin 4-monooxygenase (Photinus pyralis, UniProt P08659); test: inhibition of purified Photinus pyralis luciferase – biochemical, luminescence, dose response (AID 1891)
Chain of Luciferin 4-monooxygenase (P08659 whole entry): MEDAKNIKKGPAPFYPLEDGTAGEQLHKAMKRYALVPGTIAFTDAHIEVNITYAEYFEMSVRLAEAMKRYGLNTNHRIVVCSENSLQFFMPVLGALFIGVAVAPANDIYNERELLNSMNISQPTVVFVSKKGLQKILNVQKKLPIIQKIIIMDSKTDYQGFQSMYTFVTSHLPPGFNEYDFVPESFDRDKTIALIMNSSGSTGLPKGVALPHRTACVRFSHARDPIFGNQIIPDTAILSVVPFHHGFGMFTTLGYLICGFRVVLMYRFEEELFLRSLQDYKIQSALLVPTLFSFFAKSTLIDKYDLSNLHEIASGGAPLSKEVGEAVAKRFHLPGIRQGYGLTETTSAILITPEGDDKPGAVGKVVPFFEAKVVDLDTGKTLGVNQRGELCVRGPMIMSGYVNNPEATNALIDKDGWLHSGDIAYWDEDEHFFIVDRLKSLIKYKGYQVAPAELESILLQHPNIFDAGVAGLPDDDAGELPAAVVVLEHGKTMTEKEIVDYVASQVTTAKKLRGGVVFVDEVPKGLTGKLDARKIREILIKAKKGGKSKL

Chain of Phospholipase A2 (P04054 whole entry): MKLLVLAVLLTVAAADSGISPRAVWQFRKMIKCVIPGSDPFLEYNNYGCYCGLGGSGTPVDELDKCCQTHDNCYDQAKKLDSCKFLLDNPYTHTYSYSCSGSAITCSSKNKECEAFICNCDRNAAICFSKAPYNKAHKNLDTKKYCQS
T5 sequence (P11940 whole entry): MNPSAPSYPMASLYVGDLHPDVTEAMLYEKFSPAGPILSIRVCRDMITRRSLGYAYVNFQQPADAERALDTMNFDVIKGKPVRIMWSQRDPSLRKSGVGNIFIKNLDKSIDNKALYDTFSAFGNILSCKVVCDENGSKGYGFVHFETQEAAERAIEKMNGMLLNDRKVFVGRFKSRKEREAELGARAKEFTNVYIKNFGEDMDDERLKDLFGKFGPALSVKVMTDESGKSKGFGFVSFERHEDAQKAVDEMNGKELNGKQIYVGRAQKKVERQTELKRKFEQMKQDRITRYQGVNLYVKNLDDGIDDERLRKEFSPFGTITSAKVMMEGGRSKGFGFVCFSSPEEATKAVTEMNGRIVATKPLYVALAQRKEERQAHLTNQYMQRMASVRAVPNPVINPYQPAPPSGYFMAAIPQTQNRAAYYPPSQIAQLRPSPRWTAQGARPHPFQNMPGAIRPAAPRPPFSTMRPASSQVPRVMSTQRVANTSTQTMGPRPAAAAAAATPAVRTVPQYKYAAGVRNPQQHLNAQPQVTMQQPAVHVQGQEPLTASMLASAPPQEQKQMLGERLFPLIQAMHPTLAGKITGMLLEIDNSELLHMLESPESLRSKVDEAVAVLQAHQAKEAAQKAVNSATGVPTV
Chain of Cytochrome P450 2C9 (P11712 whole entry): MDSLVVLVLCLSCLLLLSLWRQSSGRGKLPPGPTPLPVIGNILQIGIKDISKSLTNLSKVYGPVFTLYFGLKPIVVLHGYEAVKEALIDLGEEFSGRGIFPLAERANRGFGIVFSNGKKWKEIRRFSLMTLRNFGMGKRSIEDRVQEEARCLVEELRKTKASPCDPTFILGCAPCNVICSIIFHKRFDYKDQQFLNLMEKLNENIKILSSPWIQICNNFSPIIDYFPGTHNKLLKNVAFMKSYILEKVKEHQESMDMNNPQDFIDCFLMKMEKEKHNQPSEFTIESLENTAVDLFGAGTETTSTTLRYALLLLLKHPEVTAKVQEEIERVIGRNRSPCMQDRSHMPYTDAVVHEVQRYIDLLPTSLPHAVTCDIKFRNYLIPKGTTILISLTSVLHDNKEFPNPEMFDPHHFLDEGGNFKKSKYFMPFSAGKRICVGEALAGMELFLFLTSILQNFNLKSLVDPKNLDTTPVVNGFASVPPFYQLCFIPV
Chain of Beta-galactosidase (Q8VNN2 whole entry): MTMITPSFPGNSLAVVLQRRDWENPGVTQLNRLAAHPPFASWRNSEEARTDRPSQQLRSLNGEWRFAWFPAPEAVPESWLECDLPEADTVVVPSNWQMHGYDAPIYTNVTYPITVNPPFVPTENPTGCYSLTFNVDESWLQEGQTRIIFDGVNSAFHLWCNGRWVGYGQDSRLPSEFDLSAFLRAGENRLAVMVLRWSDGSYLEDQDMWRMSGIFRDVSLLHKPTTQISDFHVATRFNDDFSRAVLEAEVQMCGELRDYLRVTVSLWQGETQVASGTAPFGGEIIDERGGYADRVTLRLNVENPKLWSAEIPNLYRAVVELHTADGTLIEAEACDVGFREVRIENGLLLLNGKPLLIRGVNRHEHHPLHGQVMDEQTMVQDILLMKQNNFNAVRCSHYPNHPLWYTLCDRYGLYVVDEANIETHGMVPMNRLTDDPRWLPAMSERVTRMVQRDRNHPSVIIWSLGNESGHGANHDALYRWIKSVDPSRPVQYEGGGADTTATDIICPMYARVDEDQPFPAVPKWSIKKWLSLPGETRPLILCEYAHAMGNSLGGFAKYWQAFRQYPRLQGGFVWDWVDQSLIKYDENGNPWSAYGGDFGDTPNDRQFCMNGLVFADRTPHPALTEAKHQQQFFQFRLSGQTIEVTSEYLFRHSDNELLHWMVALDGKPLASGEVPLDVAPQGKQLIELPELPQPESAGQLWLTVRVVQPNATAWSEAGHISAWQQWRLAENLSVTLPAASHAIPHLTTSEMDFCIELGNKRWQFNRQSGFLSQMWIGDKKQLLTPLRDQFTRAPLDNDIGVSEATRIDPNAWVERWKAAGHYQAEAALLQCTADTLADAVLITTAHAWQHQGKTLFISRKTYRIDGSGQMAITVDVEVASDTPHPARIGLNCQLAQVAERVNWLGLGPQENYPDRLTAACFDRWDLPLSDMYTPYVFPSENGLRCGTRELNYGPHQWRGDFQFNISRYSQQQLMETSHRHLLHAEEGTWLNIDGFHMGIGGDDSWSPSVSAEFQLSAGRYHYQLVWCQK

Row | Structure (SMILES) | AC50 (DNA topoisomerase) | IC50 (Phospholipase A2) | IC50 (Cysteine protease ATG4B) | EC50 [2] | EC50 [4] | other results
1 | COc1cc2c(cc1OC)C1=NC(=O)CN1C(SCc1ccc(C)cc1)=N2 | 13.8 µM (active) |  |  |  |  | 
2 | O=C(NCc1cccc(C(F)(F)F)c1)c1cc(Cl)cc(Cl)c1 |  | 2.38 µM (active) | 41 µM (inactive) |  |  | AC50 (Cytochrome P450 2C9): inconclusive
3 | CCCCCn1c(SCCC(C)C)nc2c1c(=O)[nH]c(=O)n2C | > 38 µM (inactive) |  |  |  |  | 
4 | C=CCn1c(SCc2cc(C(C)=O)ccc2OCC)nc2ccccc2c1=O |  | 1.3 µM (active) | 5.1 µM (active) |  |  | 
5 | Cc1ccccc1NCC(=O)c1ccc(Br)cc1 | 1.96 µM (active) |  |  |  |  | EC50 (Beta-galactosidase): > 40 µM (inactive); IC50 [1]: 8.62 µM (active)
6 | O=C(NCc1cccc(C(F)(F)F)c1)N1CCN(S(=O)(=O)c2ccccc2F)CC1 |  | 7.61 µM (active) | 12.5 µM (active) |  |  | 
7 | CCOC(=O)[C@H]1[C@H]2COc3ccc(Br)cc3[C@H]2N2C(=O)CN(Cc3ccc(C)cc3)C(=O)[C@@]12C |  |  |  | 4.72 µM (active) | > 99 µM (inactive) | IC50 [3]: > 66 µM (inactive); IC50 [5]: 49.1 µM (inactive)
8 | Oc1ccc(Cl)cc1/C=C/c1ccc2cccc(O)c2n1 |  |  |  | 44.8 µM (inactive) | > 99 µM (inactive) | IC50 (Prothrombin): > 50 µM (not active); AC50 [6]: 3.87 µM (active)
9 | COc1ccccc1/N=C/c1c(O)oc2ccccc2c1=O |  |  |  |  |  | EC50 [7]: > 112 µM (not active); IC50 [8]: > 100 µM (inactive); IC50 [9]: 2.87 µM (active); IC50 (Caspase-3): > 100 µM (inactive); IC50 [10]: > 100 µM (inactive); EC50 [11]: 1.3 µM (active)
10 | COc1ccc(C(=O)n2nc(-c3ccco3)nc2SC)cc1OC |  |  |  | > 99 µM (inactive) | 45.8 µM (inactive) | IC50 (Prothrombin): 0.204 µM (active)

— ChEMBL document CHEMBL1201862, “PubChem BioAssay data set” (2004)
